{"source": "patent US20040115160A1", "about": "“Quaternary ammonium esters for disinfection and preservation” (priority 2002, published 2004)", "format_in_all_cases": "cell-based", "key": {"[1]": {"test_system": "Pseudomonas aeruginosa (ATCC 9027)", "assay": "Stand-alone biocidal test without organic soil", "settings": "25 ppm in BBS, without organic soil", "description": "(§1) A test was conducted to study the microbiocidal efficacy of a solution containing a quaternary ammonium ester of the present invention employing borate buffered saline (BBS). The antimicrobial efficacy of each of the various compositions for the chemical disinfection of contact lenses was evaluated. Microbial challenge inoculums were prepared using Pseudomonas aeruginosa (ATCC 9027), Staphylococcus aureus (ATCC 6538), Serratia marcescens (ATCC 13880), Candida albicans (ATCC 10231) and Fusarium solani (ATCC 36031). The test organisms were cultured on appropriate agar and the cultures were harvested using sterile DPBST (Dulbecco's Phosphate Buffered Saline plus 0.05 percent weight/volume polysorbate 80) or a suitable diluent and transferred to a suitable vessel. Spore suspensions were filtered through sterile glass wool to remove hyphal fragments. Serratia marcescens, as appropriate, was filtered through a 1.2 mμ filter to clarify the suspension. After harvesting, the suspension was centrifuged at no more than 5000×g for a maximum of 30 minutes at 20 to 25° C. The supernatant was poured off and resuspended in DPBST or other suitable diluent. The suspension was centrifuged a second time, and resuspended in DPBST or other suitable diluent. All challenge bacterial and fungal cell suspensions were adjusted with DPBST or other suitable diluent to 1×10^7 to 1×10^8 cfu/ml. The appropriate cell concentration may be estimated by measuring the turbidity of the suspension, for example, using a spectrophotometer at a preselected wavelength, for example 490 nm. One tube was prepared containing a minimum of 10 ml of test solution per challenge organism. Each tube of the solution to be tested was inoculated with a suspension of the test organism sufficient to provide a final count of 1×10^5 to 1×10^6 cfu/ml, the volume of the inoculum not exceeding 1 percent of the sample volume. Dispersion of the inoculum was ensured by vortexing the sample for at least 15 seconds. The inoculated product was stored at 10 to 25° C. Aliquots in the amount of 1.0 ml were taken of the inoculated product for determination of viable counts after certain time periods of disinfection. The time points for the bacteria were, for example, 1, 2, 3 and 4 hours when the proposed regimen soaking time was four hours. Yeast and mold were tested at an additional timepoint of 16 hours (4 times the regimen time). The suspension was mixed well by vortexing vigorously for at least 5 seconds. The 1.0 ml aliquots removed at the specified time intervals were subjected to a suitable series of decimal dilutions in validated neutralizing media. The suspensions were mixed vigorously and incubated for a suitable period of time to allow for neutralization of the microbial agent at room temperature. The viable count of organisms was determined in appropriate dilutions by preparation of triplicate plates of trypticase soy (TSA) agar for bacteria and Sabouraud dextrose agar (SDA) for mold and yeast. The bacterial recovery plates were incubated at 30 to 35° C. for two to four days. The yeast was incubated at 20 to 30° C. for two to four days and mold recovery plates were incubated at 20 to 25° C. for three to seven days. The average number of colony forming units was determined on countable plates. Countable plates refer to 30 to 300 cfu/plates for bacteria and yeast, and 8 to 80 cfu/plate for mold except when colonies are observed only for the 10^0 or 10^−1 dilution plates. The microbial reduction was then calculated at the specified time points. […] Following inoculation in a validated neutralizing broth and incubation for an appropriate period of time, the inoculum control must be between 1.0×10^5 to 1.0×10^6 cfu/ml. […]"}, "[2]": {"test_system": "Serratia marcescens (ATCC 13880)", "assay": "Stand-alone biocidal test without organic soil", "settings": "25 ppm in BBS, without organic soil", "description": "as §1"}, "[3]": {"test_system": "cells seeded in Millicell HA 13 mm inserts", "assay": "Sodium fluorescein permeability assay", "settings": "20 min", "description": "A 0.5 ml cell suspension containing 2×10^5 cells was seeded in Millicell HA 13 mm inserts (Millipore, Bedford, Mass.). The inserts were transferred into 24 well plates containing 0.5 ml of minimum essential medium (MEM) (BioWhittaker, Walkersville, Md.) per well. The plates were then incubated at 37° C. with 5 percent carbon dioxide for six days. Fresh media was added to the wells on days 2 through 6. On day 6 the inserts were used for the permeability assay.\nEach insert was gently rinsed three times with 1 ml of Hanks' balanced salt solution (HBSS) using a 10 ml syringe, without a needle. An amount of 0.5 ml of test solution was added to separate inserts that had been placed in a fresh 24 well plate. Triplicate inserts were used for each test solution. The inserts were incubated in a 100 percent humidified chamber at 37 degrees Celsius for twenty minutes. Each series of triplicate samples was handled sequentially to allow exact timing of the treatment and subsequent steps. After incubation, each insert was individually rinsed five times with 1 ml HBSS using a 10 ml syringe without a needle, and then placed in a fresh 24 well plate containing 0.5 ml HBSS in each well. To each insert was added 0.5 ml of sodium fluorescein (3 mg/100 ml in HBSS). The inserts were incubated at room temperature for twenty minutes, removed from the wells, and the amount of sodium fluorescein was measured using a fluorometer at […]. Triplicate negative controls (HBSS solution) and positive controls consisting of sodium dodecyl sulphate (SDS) in water were included during these evaluations. Sodium fluorescein permeability assay results for composition numbers 1 and 14 are summarized below in Table 4."}}}
{"molecule": "CCCCCCCCCCCCCC(=O)OCCC[N+](C)(C)Cc1ccccc1", "note": "[Compound 1, N-myristoyloxypropyl-N-benzyl-N,N-dimethylammonium chloride]", "values": [{"measurement": "Stand-alone biocidal result (microbial log reduction) P. aeruginosa", "setting": "[1]; 1 hr.", "value": ">4.7"}, {"measurement": "Stand-alone biocidal result (microbial log reduction) P. aeruginosa", "setting": "[1]; 4 hr.", "value": ">4.7"}, {"measurement": "Stand-alone biocidal result (microbial log reduction) S. marcescens", "setting": "[2]; 1 hr.", "value": 4.8}, {"measurement": "Stand-alone biocidal result (microbial log reduction) S. marcescens", "setting": "[2]; 4 hr.", "value": ">4.8"}, {"measurement": "Sodium fluorescein permeability, Fluorescence Units", "setting": "[3]; 5 ppm", "value": 71, "unit": "Fluorescence Units"}, {"measurement": "Sodium fluorescein permeability, Fluorescence Units", "setting": "[3]; 10 ppm", "value": 71, "unit": "Fluorescence Units"}, {"measurement": "Sodium fluorescein permeability, Fluorescence Units", "setting": "[3]; 15 ppm", "value": 77, "unit": "Fluorescence Units"}, {"measurement": "Sodium fluorescein permeability, Fluorescence Units", "setting": "[3]; 25 ppm", "value": 76, "unit": "Fluorescence Units"}, {"measurement": "Sodium fluorescein permeability, Fluorescence Units", "setting": "[3]; 100 ppm", "value": 554, "unit": "Fluorescence Units"}]}
